Laboratory results reported in US10597388B2, “Pyridazinone herbicides” (FMC CORPORATION, priority 2014, dated 2020).

What was measured:
Assay type in all cases: in vivo
rice (Oryza sativa) = assay: Test B flooded paddy test; conditions: 250 g ai/ha, Flood; visual rating on scale of 0 to 100 where 0 is no effect and 100 is complete control; 13 to 15 d after treatment
Summary of the method: (§1)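 Plants at the 2-leaf stage were flooded to 3 cm above soil, and test compounds were applied directly into the paddy water, which was held at that depth throughout. After 13 to 15 d in a greenhouse, injury was rated visually against untreated controls on a 0–100 scale (0 no effect, 100 complete control).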

[1] = test system: ducksalad (Heteranthera limosa); assay: Test B flooded paddy test; conditions: 250 g ai/ha, Flood; visual rating on scale of 0 to 100 where 0 is no effect and 100 is complete control; 13 to 15 d after treatment
Summary of the method: as §1

[2] = test system: sedge, umbrella (small-flower umbrella sedge, Cyperus difformis); assay: Test B flooded paddy test; conditions: 250 g ai/ha, Flood; visual rating on scale of 0 to 100 where 0 is no effect and 100 is complete control; 13 to 15 d after treatment
Summary of the method: as §1

[3] = test system: barnyardgrass (Echinochloa crus-galli); assay: Test B flooded paddy test; conditions: 250 g ai/ha, Flood; visual rating on scale of 0 to 100 where 0 is no effect and 100 is complete control; 13 to 15 d after treatment
Summary of the method: as §1

[4] = test system: blackgrass (Alopecurus myosuroides); assay: Test A greenhouse herbicide test, postemergence
Summary of the method: (§2)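 Plants grown in loam soil/sand blend pots were treated postemergence at 2 to 10 cm height, one- to two-leaf stage, with formulated test chemicals. After approximately 10 d in a greenhouse, injury was rated visually against untreated controls on a 0 to 100 scale (0 no effect, 100 complete control).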

[5] = test system: galium (catchweed bedstraw, Galium aparine); assay: Test A greenhouse herbicide test, postemergence
Summary of the method: as §2

[6] = test system: ragweed (common ragweed, Ambrosia elatior); assay: Test A greenhouse herbicide test, pre- and postemergence
Summary of the method: (§3)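 Seeds sown in loam–sand blend got a preemergence directed soil spray of compound in non-phytotoxic solvent with surfactant. Postemergence treatment was given at 2–10 cm, one- to two-leaf stage. After ~10 d in greenhouse, injury was rated visually vs untreated controls, 0 (no effect) to 100 (complete control).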

kochia (Kochia scoparia) = assay: as above
Summary of the method: as §3

corn (Zea mays) = assay: as above; conditions: Postemergence
Summary of the method: as §3

[7] = test system: foxtail, giant (giant foxtail, Setaria faberii); assay: as above
Summary of the method: as §3

[8] = test system: wheat (Triticum aestivum); assay: as above; conditions: Postemergence
Summary of the method: as §3

[9] = test system: pigweed (Amaranthus retroflexus); assay: as above
Summary of the method: as §3

[10] = test system: ryegrass, Italian (Italian ryegrass, Lolium multiflorum); assay: as above
Summary of the method: as §3

[11] = test system: barnyardgrass (Echinochloa crus-galli); assay: as above
Summary of the method: as §3

[12] = 125 g ai/ha, 0 to 100 scale, 0 no effect, 100 complete control
[13] = 500 g ai/ha, visual rating after approx. 10 d, 0 to 100 scale (0 no effect, 100 complete control)
[14] = Postemergence, 125 g ai/ha, 0 to 100 scale, 0 no effect, 100 complete control
[15] = Postemergence, 500 g ai/ha, visual rating after approx. 10 d, 0 to 100 scale (0 no effect, 100 complete control)
[16] = Preemergence, 125 g ai/ha, visual injury rating, 0 to 100 scale (0 no effect, 100 complete control), approx. 10 d
[17] = Preemergence, 500 g ai/ha, 0 to 100 scale where 0 is no effect and 100 is complete control

CCC(=O)Oc1c(Br)nn(C)c(=O)c1-c1c(C)ccc2ccccc12 [Compound 156]
Plant response rating, Rice (rice (Oryza sativa)): 0 | Plant response rating, Ducksalad [1]: 60 | Plant response rating, Sedge, Umbrella [2]: 75 | Plant response rating, Barnyardgrass [3]: 0 | Plant response rating, Blackgrass [4, 12]: 60 | Plant response rating, Blackgrass [4, 13]: 90 | Plant response rating, Galium [5, 12]: 100 | Plant response rating, Galium [5, 13]: 100 | Plant response rating, Ragweed [6, 14]: 90 | Plant response rating, Ragweed [6, 15]: 100 | Plant response rating, Ragweed [6, 16]: 90 | Plant response rating, Ragweed [6, 17]: 90 | Plant response rating, Kochia (kochia (Kochia scoparia); [14]): 80 | Plant response rating, Kochia (kochia (Kochia scoparia); [15]): 100 | Plant response rating, Kochia (kochia (Kochia scoparia); [16]): 50 | Plant response rating, Kochia (kochia (Kochia scoparia); [17]): 100 | Plant response rating, Corn (corn (Zea mays); [12]): 0 | Plant response rating, Corn (corn (Zea mays); [13]): 30 | Plant response rating, Foxtail, Giant [7, 14]: 90 | Plant response rating, Foxtail, Giant [7, 15]: 90 | Plant response rating, Foxtail, Giant [7, 16]: 80 | Plant response rating, Foxtail, Giant [7, 17]: 90 | Plant response rating, Wheat [8, 12]: 30 | Plant response rating, Wheat [8, 13]: 60 | Plant response rating, Pigweed [9, 14]: 90 | Plant response rating, Pigweed [9, 15]: 100 | Plant response rating, Pigweed [9, 16]: 100 | Plant response rating, Pigweed [9, 17]: 100 | Plant response rating, Ryegrass, Italian [10, 14]: 90 | Plant response rating, Ryegrass, Italian [10, 15]: 100 | Plant response rating, Ryegrass, Italian [10, 16]: 90 | Plant response rating, Ryegrass, Italian [10, 17]: 100 | Plant response rating, Barnyardgrass [11, 14]: 70 | Plant response rating, Barnyardgrass [11, 15]: 90 | Plant response rating, Barnyardgrass [11, 16]: 70 | Plant response rating, Barnyardgrass [11, 17]: 100

Cc1nn(C)c(=O)c(-c2ccc(Cl)c3ccccc23)c1OS(=O)(=O)C(F)(F)F [Compound 158]
Plant response rating, Rice (rice (Oryza sativa)): 20 | Plant response rating, Ducksalad [1]: 0 | Plant response rating, Sedge, Umbrella [2]: 65 | Plant response rating, Barnyardgrass [3]: 0 | Plant response rating, Blackgrass [4, 12]: 50 | Plant response rating, Blackgrass [4, 13]: 60 | Plant response rating, Galium [5, 12]: 80 | Plant response rating, Galium [5, 13]: 90 | Plant response rating, Ragweed [6, 14]: 90 | Plant response rating, Ragweed [6, 15]: 100 | Plant response rating, Ragweed [6, 16]: 50 | Plant response rating, Ragweed [6, 17]: 80 | Plant response rating, Kochia (kochia (Kochia scoparia); [14]): 90 | Plant response rating, Kochia (kochia (Kochia scoparia); [15]): 100 | Plant response rating, Kochia (kochia (Kochia scoparia); [16]): 30 | Plant response rating, Kochia (kochia (Kochia scoparia); [17]): 40 | Plant response rating, Corn (corn (Zea mays); [12]): 0 | Plant response rating, Corn (corn (Zea mays); [13]): 0 | Plant response rating, Foxtail, Giant [7, 14]: 30 | Plant response rating, Foxtail, Giant [7, 15]: 60 | Plant response rating, Foxtail, Giant [7, 16]: 10 | Plant response rating, Foxtail, Giant [7, 17]: 40 | Plant response rating, Wheat [8, 12]: 0 | Plant response rating, Wheat [8, 13]: 0 | Plant response rating, Pigweed [9, 14]: 80 | Plant response rating, Pigweed [9, 15]: 100 | Plant response rating, Pigweed [9, 16]: 10 | Plant response rating, Pigweed [9, 17]: 100 | Plant response rating, Ryegrass, Italian [10, 14]: 90 | Plant response rating, Ryegrass, Italian [10, 15]: 100 | Plant response rating, Ryegrass, Italian [10, 16]: 80 | Plant response rating, Ryegrass, Italian [10, 17]: 80 | Plant response rating, Barnyardgrass [11, 14]: 10 | Plant response rating, Barnyardgrass [11, 15]: 50 | Plant response rating, Barnyardgrass [11, 16]: 10 | Plant response rating, Barnyardgrass [11, 17]: 60

Cc1nn(C)c(=O)c(-c2ccc(Cl)c3ccccc23)c1OC(=O)C(F)(F)F [Compound 159]
Plant response rating, Rice (rice (Oryza sativa)): 0 | Plant response rating, Ducksalad [1]: 0 | Plant response rating, Sedge, Umbrella [2]: 50 | Plant response rating, Barnyardgrass [3]: 0 | Plant response rating, Blackgrass [4, 12]: 70 | Plant response rating, Blackgrass [4, 13]: 70 | Plant response rating, Galium [5, 12]: 100 | Plant response rating, Galium [5, 13]: 100 | Plant response rating, Ragweed [6, 14]: 100 | Plant response rating, Ragweed [6, 15]: 100 | Plant response rating, Ragweed [6, 16]: 80 | Plant response rating, Ragweed [6, 17]: 80 | Plant response rating, Kochia (kochia (Kochia scoparia); [14]): 100 | Plant response rating, Kochia (kochia (Kochia scoparia); [15]): 100 | Plant response rating, Kochia (kochia (Kochia scoparia); [16]): 100 | Plant response rating, Kochia (kochia (Kochia scoparia); [17]): 100 | Plant response rating, Corn (corn (Zea mays); [12]): 20 | Plant response rating, Corn (corn (Zea mays); [13]): 40 | Plant response rating, Foxtail, Giant [7, 14]: 50 | Plant response rating, Foxtail, Giant [7, 15]: 80 | Plant response rating, Foxtail, Giant [7, 16]: 60 | Plant response rating, Foxtail, Giant [7, 17]: 80 | Plant response rating, Wheat [8, 12]: 0 | Plant response rating, Wheat [8, 13]: 30 | Plant response rating, Pigweed [9, 14]: 60 | Plant response rating, Pigweed [9, 15]: 80 | Plant response rating, Pigweed [9, 16]: 100 | Plant response rating, Pigweed [9, 17]: 100 | Plant response rating, Ryegrass, Italian [10, 14]: 100 | Plant response rating, Ryegrass, Italian [10, 15]: 100 | Plant response rating, Ryegrass, Italian [10, 16]: 100 | Plant response rating, Ryegrass, Italian [10, 17]: 100 | Plant response rating, Barnyardgrass [11, 14]: 40 | Plant response rating, Barnyardgrass [11, 15]: 80 | Plant response rating, Barnyardgrass [11, 16]: 50 | Plant response rating, Barnyardgrass [11, 17]: 80

CCOC(=O)Oc1c(C)nn(C)c(=O)c1-c1c([N+](=O)[O-])ccc2ccccc12 [Compound 166]
Plant response rating, Rice (rice (Oryza sativa)): 0 | Plant response rating, Ducksalad [1]: 0 | Plant response rating, Sedge, Umbrella [2]: 0 | Plant response rating, Barnyardgrass [3]: 0 | Plant response rating, Blackgrass [4, 12]: 10 | Plant response rating, Blackgrass [4, 13]: 30 | Plant response rating, Galium [5, 12]: 70 | Plant response rating, Galium [5, 13]: 90 | Plant response rating, Ragweed [6, 14]: 30 | Plant response rating, Ragweed [6, 15]: 70 | Plant response rating, Ragweed [6, 16]: 70 | Plant response rating, Ragweed [6, 17]: 90 | Plant response rating, Kochia (kochia (Kochia scoparia); [14]): 50 | Plant response rating, Kochia (kochia (Kochia scoparia); [15]): 70 | Plant response rating, Kochia (kochia (Kochia scoparia); [16]): 30 | Plant response rating, Kochia (kochia (Kochia scoparia); [17]): 90 | Plant response rating, Corn (corn (Zea mays); [12]): 20 | Plant response rating, Corn (corn (Zea mays); [13]): 20 | Plant response rating, Foxtail, Giant [7, 14]: 10 | Plant response rating, Foxtail, Giant [7, 15]: 40 | Plant response rating, Foxtail, Giant [7, 16]: 10 | Plant response rating, Foxtail, Giant [7, 17]: 30 | Plant response rating, Wheat [8, 12]: 0 | Plant response rating, Wheat [8, 13]: 20 | Plant response rating, Pigweed [9, 14]: 40 | Plant response rating, Pigweed [9, 15]: 80 | Plant response rating, Pigweed [9, 16]: 80 | Plant response rating, Pigweed [9, 17]: 90 | Plant response rating, Ryegrass, Italian [10, 14]: 40 | Plant response rating, Ryegrass, Italian [10, 15]: 90 | Plant response rating, Ryegrass, Italian [10, 16]: 40 | Plant response rating, Ryegrass, Italian [10, 17]: 90 | Plant response rating, Barnyardgrass [11, 14]: 10 | Plant response rating, Barnyardgrass [11, 15]: 20 | Plant response rating, Barnyardgrass [11, 16]: 10 | Plant response rating, Barnyardgrass [11, 17]: 10

Cc1nn(C)c(=O)c(-c2c([N+](=O)[O-])ccc3ccccc23)c1OC(=O)C1CC1 [Compound 167]
Plant response rating, Rice (rice (Oryza sativa)): 0 | Plant response rating, Ducksalad [1]: 0 | Plant response rating, Sedge, Umbrella [2]: 0 | Plant response rating, Barnyardgrass [3]: 0 | Plant response rating, Blackgrass [4, 12]: 20 | Plant response rating, Blackgrass [4, 13]: 40 | Plant response rating, Galium [5, 12]: 70 | Plant response rating, Galium [5, 13]: 90 | Plant response rating, Ragweed [6, 14]: 60 | Plant response rating, Ragweed [6, 15]: 70 | Plant response rating, Ragweed [6, 16]: 70 | Plant response rating, Ragweed [6, 17]: 80 | Plant response rating, Kochia (kochia (Kochia scoparia); [14]): 50 | Plant response rating, Kochia (kochia (Kochia scoparia); [15]): 70 | Plant response rating, Kochia (kochia (Kochia scoparia); [16]): 60 | Plant response rating, Kochia (kochia (Kochia scoparia); [17]): 100 | Plant response rating, Corn (corn (Zea mays); [12]): 0 | Plant response rating, Corn (corn (Zea mays); [13]): 20 | Plant response rating, Foxtail, Giant [7, 14]: 20 | Plant response rating, Foxtail, Giant [7, 15]: 40 | Plant response rating, Foxtail, Giant [7, 16]: 10 | Plant response rating, Foxtail, Giant [7, 17]: 20 | Plant response rating, Wheat [8, 12]: 0 | Plant response rating, Wheat [8, 13]: 0 | Plant response rating, Pigweed [9, 14]: 70 | Plant response rating, Pigweed [9, 15]: 80 | Plant response rating, Pigweed [9, 16]: 100 | Plant response rating, Pigweed [9, 17]: 100 | Plant response rating, Ryegrass, Italian [10, 14]: 70 | Plant response rating, Ryegrass, Italian [10, 15]: 80 | Plant response rating, Ryegrass, Italian [10, 16]: 80 | Plant response rating, Ryegrass, Italian [10, 17]: 100 | Plant response rating, Barnyardgrass [11, 14]: 20 | Plant response rating, Barnyardgrass [11, 15]: 20 | Plant response rating, Barnyardgrass [11, 16]: 10 | Plant response rating, Barnyardgrass [11, 17]: 20
